Data published in patent publication US12076409B2, “Polymer-drug conjugates for combination anticancer therapy” (priority 2015, dated 2024).

What was measured:
[1] = test system: human breast cancer cell line BT-474; test: MTT cell viability and drug combination studies in BT-474 cells; format: cell-based; conditions: BT-474, 72 hours, read-out: D50 (concentration of drug required to inhibit 50% cell growth)
Protocol: BT-474 or bEnd.3 cells were seeded in a 96-well cell culture plate at a density of 10,000 cells per well in a total volume of 100 μL/well and allowed to adhere overnight. Media was then replaced with fresh media containing drug(s). Drugs were first dissolved in DMSO, and then further diluted in full cell culture medium so as not to expose cells to more than 0.5 vol % DMSO. BT-474 cells were incubated with drug solutions for 72 hours, while bEnd.3 cells were exposed to drug solutions for 48 hours. […] To assess cell viability, the media was replaced with 0.5 mg/mL MTT in media and allowed to incubate for 4 hours. […] Formazan dye intensity was determined by absorbance measured at 570 nm in a Tecan Infinite M200 Pro plate reader (Männedorf, Switzerland). The fraction of inhibited cell growth was calculated by subtracting live cells in experimental wells from untreated control cells and normalizing against control cells. D50 refers to the concentration of drug required to inhibit 50% cell growth. Experimental cytotoxicity data were fitted to the median-effect model developed by Chou and Talalay to obtain in vitro cytotoxicity curves for each drug.

BT-474 cells [2] = test: Annexin V/Sytox Green apoptosis assay (flow cytometry); format: cell-based, human; conditions: BT-474, 72 hours, single drug
Protocol: Apoptosis assessment was made based on Annexin V and Sytox Green counterstaining. Studies followed the Life Technologies Apoptosis Assay protocol, with few modifications tailored to BT-474 cells. Briefly, cells were seeded at a concentration of 100×10^4 cells per 25 cm^2 cell culture flask in a total volume of 10 mL media, and allowed to adhere overnight. Media was then decanted and replaced with fresh media containing drug(s). Drugs were first dissolved in DMSO and further diluted in media such that cells were not exposed to more than 0.2 vol % DMSO. Cells were incubated in the presence of drug(s) for 72 hours. After drug exposure, cells were harvested at a concentration of 1×10^6 cells/mL in Annexin V binding buffer, and 200 μL of each sample were incubated with 5 μL of Annexin V-647 and 1 μL of 1 μM Sytox Green. After 15 minutes of dye incubation, cells were diluted 5× in ice cold Annexin V Binding Buffer, and immediately analyzed via flow cytometry in a Becton Dickinson FACSAria cell sorter (Franklin Lakes, NJ, USA). To quantify Annexin V-647 and Sytox Green fluorescence, a 633 nm laser with 660 PMT and a 488 nm laser with 530 PMT, respectively, were utilized. […]
Scatter plots obtained from flow cytometry of AnnexinV/Sytox Green counterstained cells were analyzed. These plots were utilized to quantify early apoptotic and late apoptotic/necrotic populations in FIG. 2. […]

BT-474 cells [3] = test: Internalization studies by confocal laser scanning microscopy; format: cell-based, human; conditions: BT-474, 24 hrs
Protocol: To assess the effect of HA-conjugation on the internalization of CPT or DOX in BT-474 cells, confocal laser scanning microscopy was utilized. Cells were seeded at a density of 80,000 cells per 300 μL media in an 8-well chambered borosilicate coverglass (Nunc Lab-Tek), and were allowed to adhere overnight. Cells were exposed to the same drug concentration, the free drug D50, of either the free drug solution or the HA-conjugate form for 24 hrs at 37° C. and 5% CO2. Post-drug incubation, cells were washed twice with warmed PBS (pH 7.4), followed by staining with nuclear dyes at 37° C., 5% CO2. In the case of DOX-exposed cells, Hoechst nuclear dye was utilized at a concentration of 25 μg/mL for 30 minutes. For CPT-exposed cells, to avoid overlap fluorescence between CPT and nuclear marker, DRAQ5 was used to stain nuclei at a concentration of 5 μM in media for 60 minutes. Cells were washed twice more in warm PBS and finally suspended in media immediately prior to imaging. All cells were imaged live with an Olympus Fluoview 1000 spectral confocal equipped with a 60× silicon oil objective and a 37° C. temperature-controlled imaging chamber. […] Z-stacks of 10 μm were captured and subsequently analyzed with ImageJ 1.47h software (NIH). Each z-stack was collapsed into an averaged image, and fluorescence intensity was reported as the raw integrated density divided by number of cells. […]

small cell lung cancer = conditions: patients with small cell lung cancer; cited from earlier work

Structure (SMILES)	IC50 [1]	percentage of apoptotic cells (BT-474 cells [2])	intracellular distribution (BT-474 cells [3])	overall response rate (small cell lung cancer)
CC[C@@]1(O)C(=O)OCc2c1cc1n(c2=O)Cc2cc3ccccc3nc2-1 [CPT, Camptothecin]	100 µM	low percentages of apoptotic cells		
COc1cccc2c1C(=O)c1c(O)c3c(c(O)c1C2=O)C[C@@](O)(C(=O)CO)C[C@@H]3O[C@H]1C[C@H](N)[C@H](O)[C@H](C)O1 [DOX, Doxorubicin]			more diffuse and co-localized with cell nuclei	> 20%
